According to patent US20240216249A1, “COLLAGEN ACTIVATOR, AND PREPARATION METHOD AND APPLICATION THEREOF” (Hangzhou NUPTEC Rising Bioproducts Incorporation, Ltd., priority 2022, published 2024):

Columns and labels:
collagen I = assay: cell experiments, expression of collagen I; assay type: cell-based
collagen XVII = assay: cell experiments, expression of collagen XVII; assay type: cell-based
collagen III = assay: cell experiments, expression of collagen III; assay type: cell-based
[1] = tested on: blood vessels of embryonated eggs; assay: safety test on blood vessels of embryonated eggs; details: positive comparative group, 0.05 M SDS, 5 eggs

Structure (SMILES) | content having a promoting effect on the expression of collagen I (collagen I) | optimal content (highest expression) for collagen I (collagen I) [%] | content having a promoting effect on the expression of collagen XVII (collagen XVII) | optimal content (highest expression) for collagen XVII (collagen XVII) [%] | content having a promoting effect on the expression of collagen III (collagen III) | optimal content (highest expression) for collagen III (collagen III) [%] | irritation judgement [1] | bleeding of blood vessels of embryonated eggs ([1]; 30 min)
CC1(C)[C@@H](O[C@H]2O[C@H](C(=O)[O-])[C@@H](O)[C@H](O)[C@H]2O[C@@H]2O[C@H](C(=O)[O-])[C@@H](O)[C@H](O)[C@H]2O)CC[C@]2(C)[C@H]3C(=O)C=C4[C@@H]5C[C@@](C)(C(=O)O)CC[C@]5(C)CC[C@@]4(C)[C@]3(C)CC[C@@H]12.[K+].[K+] [dipotassium glycyrrhizinate] | 0.001%-0.1 | 0.01 | 0.001%-0.01 | 0.01 | 0.001%-0.25 | 0.1 | – | –
CCCCCCCCCCCCOS(=O)(=O)[O-].[Na+] [SDS, sodium dodecyl sulfate] | – | – | – | – | – | – | non-irritants | appear the bleeding phenomenon
